Results published in ChEMBL document CHEMBL1201862, “PubChem BioAssay data set” (2004).
“And” between values parts separate entries of the source, which are not always exact repeats. Equal values may be shown once.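 Cells were grown in 96-well plates and exposed to each compound for 48 hours at five concentrations; endpoints were interpolated linearly between bracketing concentrations, or set to the highest concentration if not reached. Here, GI50 denotes the concentration required for 50% inhibition of growth.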 The source made the active and inactive calls. Cut-off read from the data, not from the text of the source: active = GI50 up to about 1.1 µM and inactive = higher.

Legend:
Assay in all cases: DTP human tumour cell line panel, 48 h
[1] = system: DLD-1
[2] = system: HOP-92
[3] = system: HCT-116
[4] = system: LXFL 529
[5] = system: UACC-62
[6] = system: A549
[7] = system: OVCAR-8
[8] = system: NCI-H23
[9] = system: SNB-78
[10] = system: A498
[11] = system: DMS-114
[12] = system: M14
[13] = system: HOP-62
[14] = system: RPMI-8226
[15] = system: M19-MEL
[16] = system: HCT-15
[17] = system: OVCAR-3
[18] = system: SNB-19
[19] = system: U-251
[20] = system: KM12
[21] = system: SK-MEL-5
[22] = system: ACHN
[23] = system: SK-MEL-28
[24] = system: CAKI-1
[25] = system: EKVX
[26] = system: SF-539
[27] = system: NCI-H460
[28] = system: HL-60
[29] = system: OVCAR-4
[30] = system: SW-620
[31] = system: Malme-3M
[32] = system: NCI-H226
[33] = system: OVCAR-5
[34] = system: SF-268
[35] = system: UO-31
[36] = system: UACC-257
[37] = system: SN12C
[38] = system: COLO 205
[39] = system: RXF 393
[40] = system: SF-295
[41] = system: SK-MEL-2
[42] = system: 786-0
[43] = system: NCI-H522
[44] = system: IGROV-1
[45] = system: SK-OV-3
[46] = system: HT-29
[47] = system: LOX IMVI
[48] = system: SNB-75
[49] = system: DMS-273
[50] = system: SR
[51] = system: K562
[52] = system: MOLT-4
[53] = system: TK-10
[54] = system: KM-20L2
[55] = system: HCC 2998
[56] = system: CCRF-CEM
[57] = system: HOP-18
[58] = system: MDA-N
[59] = system: MCF7
[60] = system: T47D
[61] = system: DU-145
[62] = system: BT-549
[63] = system: MDA-MB-231
[64] = system: Hs-578T
[65] = system: PC-3
[66] = system: MDA-MB-435
[67] = system: NCI/ADR-RES

O=C(Nc1ccc(Cl)cc1Cl)C(=O)C(C(=O)c1ccc2ccccc2c1)C1OC(=O)c2ccccc21 (stereo unspecified)
GI50 [1]: 10.7 µM (inactive) | GI50 [2]: 3.3 µM (inactive) | GI50 [3]: 5.56 µM (inactive) | GI50 [4]: 3.33 µM (inactive) | GI50 [5]: 9.79 µM (inactive) | GI50 [6]: 8.32 µM (inactive) | GI50 [7]: 6.34 µM (inactive) | GI50 [8]: 2.92 µM (inactive) | GI50 [9]: 3.33 µM (inactive) | GI50 [10]: 6.7 µM (inactive) | GI50 [11]: 11.1 µM (inactive) | GI50 [12]: 13.4 µM (inactive) | GI50 [13]: 11.9 µM (inactive) | GI50 [14]: 4.06 µM (inactive) | GI50 [15]: 12.6 µM (inactive) | GI50 [16]: 11.5 µM | GI50 [17]: 10.7 µM (inactive) | GI50 [18]: 5.78 µM (inactive) | GI50 [19]: 2.51 µM (inactive) | GI50 [20]: 15 µM (inactive) | GI50 [21]: 9.73 µM (inactive) | GI50 [22]: 15.8 µM (inactive) | GI50 [23]: 3.48 µM (inactive) | GI50 [24]: 13.5 µM (inactive) | GI50 [25]: 15.9 µM (inactive) | GI50 [26]: 2.68 µM (inactive) | GI50 [27]: 4.33 µM (inactive) | GI50 [28]: 2.96 µM (inactive) | GI50 [29]: 10.1 µM (inactive) | GI50 [30]: 6.73 µM (inactive) | GI50 [31]: > 10 µM (inactive) | GI50 [32]: 1.73 µM (inactive) | GI50 [33]: 4.65 µM (inactive) | GI50 [34]: > 10 µM (inactive) | GI50 [35]: 11.4 µM (inactive) | GI50 [36]: 12.6 µM (inactive) | GI50 [37]: 11.7 µM (inactive) | GI50 [38]: 9.46 µM (inactive) | GI50 [39]: 2.16 µM (inactive) | GI50 [40]: 4.02 µM (inactive) | GI50 [41]: 13.7 µM (inactive) | GI50 [42]: 5.97 µM (inactive) | GI50 [43]: > 10 µM (inactive) | GI50 [44]: 13.6 µM (inactive) | GI50 [45]: 26.8 µM (inactive) | GI50 [46]: 15.7 µM (inactive) | GI50 [47]: 5.19 µM (inactive)

c1ccncc1
GI50 [1]: > 100 µM (inactive) | GI50 [4]: > 100 µM (inactive) | GI50 [6]: > 100 µM (inactive) | GI50 [8]: > 100 µM (inactive) | GI50 [48]: 85.5 µM (inactive) | GI50 [16]: > 100 µM | GI50 [49]: > 100 µM (inactive) | GI50 [22]: > 100 µM (inactive) | GI50 [26]: > 100 µM (inactive) | GI50 [50]: > 100 µM (inactive) | GI50 [31]: > 100 µM (inactive) | GI50 [32]: > 100 µM (inactive) | GI50 [34]: > 100 µM (inactive) | GI50 [37]: > 100 µM (inactive) | GI50 [47]: > 100 µM (inactive)

COc1ccc(C(c2ccccc2)C(C)C(=O)c2c(C)cc(C)cc2C)cc1 (stereo unspecified)
GI50 [14]: 69.8 µM (inactive) and 79.8 µM (inactive) | GI50 [15]: 42.5 µM (inactive) and 59 µM (inactive) | GI50 [31]: 57.7 µM (inactive) | GI50 [43]: 37.8 µM (inactive) and 53.5 µM (inactive) | GI50 [51]: 94.2 µM (inactive) and 53.7 µM (inactive) | GI50 [46]: 47.4 µM (inactive) and 56 µM (inactive)

COc1ccc(C(N)=O)cc1/N=N/N(C)C
GI50 [1]: > 100 µM (inactive) | GI50 [2]: > 100 µM (inactive) | GI50 [3]: > 100 µM (inactive) | GI50 [4]: > 100 µM (inactive) | GI50 [5]: > 100 µM (inactive) | GI50 [6]: > 100 µM (inactive) | GI50 [52]: > 100 µM (inactive) | GI50 [7]: 78.3 µM (inactive) | GI50 [8]: > 100 µM (inactive) | GI50 [10]: > 100 µM (inactive) | GI50 [48]: > 100 µM (inactive) | GI50 [12]: > 100 µM (inactive) | GI50 [13]: > 100 µM (inactive) | GI50 [53]: > 100 µM (inactive) | GI50 [14]: > 100 µM (inactive) | GI50 [15]: > 100 µM (inactive) | GI50 [16]: > 100 µM | GI50 [49]: > 100 µM (inactive) | GI50 [17]: > 100 µM (inactive) | GI50 [18]: > 100 µM (inactive) | GI50 [54]: > 100 µM (inactive) | GI50 [55]: > 100 µM (inactive) | GI50 [19]: > 100 µM (inactive) | GI50 [20]: > 100 µM (inactive) | GI50 [21]: > 100 µM (inactive) | GI50 [22]: > 100 µM (inactive) | GI50 [23]: > 100 µM (inactive) | GI50 [56]: > 100 µM (inactive) | GI50 [24]: > 100 µM (inactive) | GI50 [25]: > 100 µM (inactive) | GI50 [26]: > 100 µM (inactive) | GI50 [50]: 39.8 µM (inactive) | GI50 [27]: > 100 µM (inactive) | GI50 [28]: > 100 µM (inactive) | GI50 [29]: > 100 µM (inactive) | GI50 [57]: > 100 µM (inactive) | GI50 [30]: > 100 µM (inactive) | GI50 [31]: > 100 µM (inactive) | GI50 [32]: > 100 µM (inactive) | GI50 [33]: > 100 µM (inactive) | GI50 [34]: > 100 µM (inactive) | GI50 [35]: > 100 µM (inactive) | GI50 [36]: > 100 µM (inactive) | GI50 [37]: > 100 µM (inactive) | GI50 [38]: > 100 µM (inactive) | GI50 [40]: > 100 µM (inactive) | GI50 [41]: > 100 µM (inactive) | GI50 [42]: > 100 µM (inactive) | GI50 [43]: > 100 µM (inactive) | GI50 [44]: > 100 µM (inactive) | GI50 [51]: > 100 µM (inactive) | GI50 [45]: > 100 µM (inactive) | GI50 [46]: > 100 µM (inactive) | GI50 [47]: > 100 µM (inactive)

Cc1occc1C(=S)Nc1ccc(Cl)c(/C=N/OC(C)(C)C)c1
GI50 [2]: 13 µM (inactive) | GI50 [58]: 18.9 µM (inactive) | GI50 [3]: 13.5 µM (inactive) | GI50 [5]: 14.3 µM (inactive) | GI50 [6]: 16.6 µM (inactive) | GI50 [59]: 18.1 µM (inactive) | GI50 [52]: 9.51 µM (inactive) | GI50 [7]: 18.9 µM (inactive) | GI50 [8]: 15.3 µM (inactive) | GI50 [10]: 20.4 µM (inactive) | GI50 [48]: 21.8 µM (inactive) | GI50 [12]: 18.2 µM (inactive) | GI50 [60]: 16.5 µM (inactive) | GI50 [61]: 19.7 µM (inactive) | GI50 [13]: 19.9 µM (inactive) | GI50 [53]: 21.9 µM (inactive) | GI50 [14]: 16.7 µM (inactive) | GI50 [16]: 15 µM | GI50 [17]: 15.6 µM (inactive) | GI50 [18]: 18.7 µM (inactive) | GI50 [62]: 17.6 µM (inactive) | GI50 [63]: 19.7 µM (inactive) | GI50 [55]: 16.6 µM (inactive) | GI50 [19]: 13.9 µM (inactive) | GI50 [20]: 15.3 µM (inactive) | GI50 [21]: 17.3 µM (inactive) | GI50 [22]: 14.6 µM (inactive) | GI50 [23]: 17.7 µM (inactive) | GI50 [56]: 17.8 µM (inactive) | GI50 [24]: 17.2 µM (inactive) | GI50 [25]: 18.4 µM (inactive) | GI50 [26]: 31.2 µM (inactive) | GI50 [50]: 12.9 µM (inactive) | GI50 [27]: 14.7 µM (inactive) | GI50 [28]: 17.3 µM (inactive) | GI50 [29]: 18.3 µM (inactive) | GI50 [30]: 18.5 µM (inactive) | GI50 [31]: 21.8 µM (inactive) | GI50 [32]: 16.9 µM (inactive) | GI50 [33]: 15 µM (inactive) | GI50 [34]: 22.6 µM (inactive) | GI50 [35]: 13.9 µM (inactive) | GI50 [64]: 19.8 µM (inactive) | GI50 [65]: 16 µM (inactive) | GI50 [66]: 16.6 µM (inactive) | GI50 [36]: 16.7 µM (inactive) | GI50 [37]: 15.1 µM (inactive) | GI50 [38]: 17.5 µM (inactive) | GI50 [39]: 13.4 µM (inactive) | GI50 [40]: 13.3 µM (inactive) | GI50 [41]: 17.9 µM (inactive) | GI50 [42]: 18.7 µM (inactive) | GI50 [43]: 11.7 µM (inactive) | GI50 [44]: 23.8 µM (inactive) | GI50 [51]: 31.6 µM (inactive) | GI50 [45]: 23 µM (inactive) | GI50 [46]: 13.7 µM (inactive) | GI50 [67]: 14.7 µM (inactive) | GI50 [47]: 13.1 µM (inactive)
